Data set [1] concerns sputum neutrophil elastase, sputum neutrophil DNA, serum high-sensitivity C-reactive protein. In words: EMPIRE-CF: biomarkers (sputum DNA and elastase, serum hs-CRP). Format: in vivo, human. The following applies: compared with reductions seen in phase 1 trial. As to the method: Pulmonary exacerbations were analyzed both as the time to first pulmonary exacerbation and the rate of pulmonary exacerbations. The time to first protocol defined-pulmonary exacerbation were analyzed using a Cox proportional hazards model. The number of protocol-defined pulmonary exacerbations reported through the Week 48/Early Termination visit were annualized (where a year was defined as 52 weeks) analyzed using a negative binomial regression. The two active doses were compared to placebo individually as well as pooled together using a contrast statement similar to that used for the primary analysis. Point estimates, standard errors, and 95% CIs for the mean of number of pulmonary exacerbations were presented. The difference in means between each CTX-4430 group from placebo were presented along with standard errors and 95% CIs. Spirometry-based endpoints were analyzed using the same methods as the primary endpoint. Analyses of sputum DNA and elastase and serum high-sensitivity C-reactive protein were based upon descriptive statistics by treatment group.

Data set [2] has as its system LTB4 production. The settings on record: cited from earlier work.
Data set [3] concerns sputum neutrophils, sputum elastase, C-reactive protein, sputum LTB4. The following applies: cited from earlier work.
For data set [4] the following is noted: in vivo; cited from earlier work.
For data set [5], the system named is adult patients with cystic fibrosis. In words: EMPIRE-CF: absolute change from baseline in FEV1pp (spirometry). In kind it is in vivo, human. The settings on record: 48 weeks of therapy. As to the method: The primary endpoints were absolute change from baseline in FEV1pp and safety outcomes. Secondary endpoints included rate of pulmonary exacerbations and time to first pulmonary exacerbation, and the effects on biomarkers of lung and systemic inflammation. Analyses are described in section entitled “Analysis.”
Spirometry data were recorded at screening and baseline; all other spirometric measurements at subsequent visits are ideally recorded within ±1 h of the baseline visit measurement. All tests met American Thoracic Society/European Respiratory Society criteria for quality (acceptability, reproducibility, and end of test criteria) [Miller et al., 2005]. To ensure consistency of measurement, spirometry measurements were ideally performed by the same researcher and the patient coached to use maximum effort at every attempt. Patients were able to take all of their concomitant medications according to their regular schedule; however, they were to refrain from using short-acting bronchodilators within 4 h of the scheduled spirometry time, and long-acting bronchodilators within 12-24 h of the scheduled spirometry time.
The primary analysis was based upon an analysis of variance (ANOVA) in which the average of the Week 48 change from baseline in FEV1pp for the two acebilustat doses was compared to that in the placebo group. […]

For data set [6] the test system is unchanged. In words: EMPIRE-CF: safety and tolerability. Format: in vivo, human. The following applies: 48 weeks. The source says: Treatment-emergent adverse events (TEAEs), including serious adverse events, were collected at each visit, and summarized by MEDRA system organ class and preferred term, severity, and relatedness to the study drug. An independent data monitoring committee monitored the safety and study conduct at approximately 8-week intervals.

Where [7] appears, read: once-daily, adult patients with CF.

The structures appear in SMILES notation. “Also recorded” adds a separate entry of the source.

These results are taken from patent US12558353B2 (CELLTAXIS, LLC, priority 2018, dated 2026).

For the molecule `O=C(O)c1ccc(CN2C[C@@H]3C[C@H]2CN3Cc2ccc(Oc3ccc(-c4ncco4)cc3)cc2)cc1` [acebilustat, 4-{[(1S,4S)-5-({4-[4-oxazol-2-yl-phenoxy]phenyl}methyl)-2,5-diazabicyclo[2.2.1]heptan-2-yl]methyl}benzoic acid], in data set [1], the “sputum neutrophil elastase, sputum neutrophil DNA and serum hs-CRP versus placebo” value was “did not observe similar changes”. Besides, the “peak reduction in LTB4 production” value in data set [2] (50 mg dose) was around 75%. Further, the “reduction of serum LTB4 production” value in data set [2] (100 mg dose, near-maximum) was 86%. In addition, the C-reactive protein result in data set [3] (acebilustat treated groups) was “Numerical reductions”. Besides, in data set [3] (setting [7]), the “reduction of sputum elastase levels” value is on record as “up to 58%” and the “reduction of sputum neutrophil levels” value is “up to 65%”. Also, in data set [3] (patients with CF), the “sputum LTB4 levels, acebilustat- vs placebo-treated patients” value is reported as “decreased significantly”. In data set [4], the “AUC0-24 at steady state, fed vs fasting” value was “no differences” and the “Cmax or AUC0-24, healthy volunteers versus patients with CF” value is recorded as “No significant differences”. In addition, the “absolute change in FEV1pp from baseline at Week 48 versus placebo (primary endpoint)” value in data set [5] is “not different from placebo; also recorded: did not separate from placebo; also recorded: No difference between acebilustat and placebo”. In data set [6], the “severity of the majority of adverse events” value is given as “mild or moderate”; the “tolerability and risk of infection” value was “safe and well tolerated”. Also, the “tolerability and risk of infection” value in data set [6] (listed as Acebilustat) is listed as “well tolerated with no increased risk of infection”.
